From BindingDB's records for doi:10.1021/jm9701583 (R.W. Johnson Pharmaceutical Research Institute, 1997)

Target: DNA gyrase (Escherichia coli)
Assay: Inhibition of supercoiling activity of DNA gyrase in Escherichia coli

SMILES	IC50 [µM]
COc1cc(C(C)N(O)C(=O)c2ccccc2-c2ccccc2C(=O)O)cc(OC)c1OC (stereo unspecified)	> 1100
CC(c1ccccc1)N(O)C(=O)c1ccccc1-c1ccccc1C(=O)O (stereo unspecified)	> 1380
CC(c1ccc(N2CCN(c3ccccc3)CC2)cc1)N(O)C(=O)c1ccccc1-c1ccccc1C(=O)O (stereo unspecified)	> 958

More lines, in order of falling IC50, values ahead:

IC50 [µM]	SMILES
1360	CC(c1ccc2c(c1)Nc1ccccc1S2)N(O)C(=O)c1ccccc1-c1ccccc1C(=O)O (stereo unspecified)
205	CC(c1ccc2c(ccc3ccccc32)c1)N(O)C(=O)c1ccccc1-c1ccccc1C(=O)O (stereo unspecified)
121	CC(c1ccc2oc(-c3ccccc3)cc2c1)N(O)C(=O)c1ccccc1-c1ccccc1C(=O)O (stereo unspecified)
